Experimental data reported in ChEMBL document CHEMBL2375247, “Synthesis and evaluation of 3-(benzylthio)-5-(1H-indol-3-yl)-1,2,4-triazol-4-amines as Bcl-2 inhibitory anticancer agents” (Bioorg Med Chem Lett, 2013).

Key:
[1] = tested on: Jurkat; experiment: Cytotoxicity against human Jurkat cells after 24 hrs by CellTitre-Blue assay; assay type: functional, cell-based
[2] = tested on: HeLa; experiment: Cytotoxicity against human HeLa cells after 72 hrs by MTT assay; assay type: functional, cell-based
[3] = Cytotoxicity against human KG1a cells after 24 hrs by CellTitre-Blue assay; assay type: functional, cell-based; conditions: KG-1a
[4] = tested on: MDA-MB-231; experiment: Cytotoxicity against human MDA-MB-231 cells after 72 hrs by MTT assay; assay type: functional, cell-based; conditions: MDA-MB-231, 72 h
[5] = molecular target: Apoptosis regulator Bcl-2 (Homo sapiens, UniProt P10415); experiment: Competitive binding affinity to his-tagged Bcl-2 (unknown origin) after 1 hr by ELISA in presence of Bim peptide
Apoptosis regulator Bcl-2, sequence (P10415 whole entry): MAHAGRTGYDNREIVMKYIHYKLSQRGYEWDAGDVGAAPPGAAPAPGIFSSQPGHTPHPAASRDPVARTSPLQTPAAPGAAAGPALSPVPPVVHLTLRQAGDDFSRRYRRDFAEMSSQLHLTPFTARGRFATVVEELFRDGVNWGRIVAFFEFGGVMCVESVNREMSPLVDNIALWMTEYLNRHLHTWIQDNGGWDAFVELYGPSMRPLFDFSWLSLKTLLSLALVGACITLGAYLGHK

Row | IC50 [5] | Compound | IC50 [1] | IC50 [2] | IC50 [3] | IC50 [4]
1 |  | COc1ccc(CSc2nnc(-c3c[nH]c4ccccc34)n2N)cc1 | > 100 µM | 0.75 µM | > 100 µM | 1.7 µM
2 |  | Cc1ccc(CSc2nnc(-c3c[nH]c4ccccc34)n2N)cc1 | > 100 µM | 5.38 µM | > 100 µM | 10.5 µM
3 |  | Nn1c(SCc2ccccc2)nnc1-c1c[nH]c2ccccc12 | > 100 µM | 2.3 µM | 17.2 µM | 26.5 µM
4 |  | Nn1c(SCc2ccccc2[N+](=O)[O-])nnc1-c1c[nH]c2ccccc12 | > 100 µM | 2.52 µM | 20.8 µM | 9.52 µM
5 | 1.43 µM | Nn1c(SCc2cccc([N+](=O)[O-])c2)nnc1-c1c[nH]c2ccccc12 | > 100 µM | 0.4 µM | 0.65 µM | 0.31 µM
6 |  | Nn1c(SCc2ccc([N+](=O)[O-])cc2)nnc1-c1c[nH]c2ccccc12 | > 100 µM | 0.25 µM | 6.9 µM | 0.74 µM
7 |  | Nn1c(SCc2ccc(F)cc2)nnc1-c1c[nH]c2ccccc12 | > 100 µM | 0.29 µM | 13.2 µM | 1.35 µM
8 |  | Nn1c(SCc2ccc(Br)cc2)nnc1-c1c[nH]c2ccccc12 | > 100 µM | 8 µM | 55.8 µM | 71.4 µM
9 |  | COc1cccc(CSc2nnc(-c3c[nH]c4ccccc34)n2N)c1 | > 100 µM | 1.73 µM | 12.9 µM | 15.6 µM
